Measurements reported in patent publication US20190071416A1, “COMPOUNDS FOR TREATMENT OF CANCER AND EPIGENETICS” (Agency For Science, Technology and Research, priority 2015, published 2019).

Columns and labels:
SMYD3 [1] = biological target: T1, SMYD3 (Homo sapiens, UniProt Q9H7B4); experiment: SMYD3 biochemical assay (MTase-Glo, MAP3K2 peptide substrate); details: for IC50: Table 4, prior art compounds, read-out: IC50
T1 sequence (Q9H7B4 1-428): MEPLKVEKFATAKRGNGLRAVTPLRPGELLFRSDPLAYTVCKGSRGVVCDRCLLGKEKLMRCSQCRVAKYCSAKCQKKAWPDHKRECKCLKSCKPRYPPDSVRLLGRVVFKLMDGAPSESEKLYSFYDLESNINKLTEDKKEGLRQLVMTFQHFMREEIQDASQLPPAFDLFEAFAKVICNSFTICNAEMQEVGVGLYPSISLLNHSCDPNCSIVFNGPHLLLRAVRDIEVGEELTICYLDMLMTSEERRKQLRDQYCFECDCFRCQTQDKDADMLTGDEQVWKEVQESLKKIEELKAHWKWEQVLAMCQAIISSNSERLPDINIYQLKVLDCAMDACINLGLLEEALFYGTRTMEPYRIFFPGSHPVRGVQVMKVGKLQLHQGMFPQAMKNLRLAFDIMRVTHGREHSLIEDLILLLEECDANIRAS
How it was run: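 Luminescent readout of SAH production (coupled SAH→ATP conversion, MTase-Glo) after SMYD3 reacted 30 min at room temperature with 1.0 µM SAM and 10 µM MAP3K2 peptide, both final. Non-linear regression gave IC50 values.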

[2] = Human liver microsomes stability test; assay type: in vitro ADME; details: high metabolic clearance
[3] = Mouse liver microsomes stability test; assay type: in vitro ADME; details: high metabolic clearance
SMYD3 [4] = biological target: T1, SMYD3; experiment: Target engagement assay, SMYD3 levels by Western blot in HEK293 cells transfected with Myc-SMYD3; assay type: cell-based; parameters: host or cells: HEK293 (ATCC); details: compared to B019
Description: The target engagement assay was performed with HEK293 that is engineered to overexpress SMYD3 (HEK293-SMYD3). The plasmid SMYD3 (Myc-DDK-tagged-Human SET and MYND domain containing 3) was purchased from Origene (RC230064) and transfected with lipofectamine 2000 (Invitrogen) into HEK293 (ATCC). The cell line is cultured in Eagle's MEM media supplemented with fetal bovine serum and geneticin (Invitrogen). Presence of over-expressed SMYD3 is confirmed with western blot with antibody against SMYD3 and the MYC tag as well as with RT-PCR with SMYD3 primers.
The cells were seeded in 6 well plates. After seeding for 24 h, the cells were treated with either DMSO or 25 μM compound and incubated for 24 hr. The cells were trypsinized and the lysate was extracted with RIPA buffer (Santa Cruz). The total protein concentration of lysate is quantified using the standard Bradford assay (Biorad protein assay, microplate standard assay).
Western blot analysis was performed using antibody against SMYD3 in HEK293 cells over-expressing SMYD3 (HEK293-SMYD3) treated with compound at different time points. 15.0 μg of cell lysate was diluted in 2× Laemmli sample buffer (Bio-Rad) and boiled at 100° C. on heat block for 5 min. Lysates were separated using NuPAGE® 4-12% Bis-Tris precast polyacrylamide gels (Lifetech) at 200 V, […] for 40 min. […]

SMYD3 [5] = biological target: T1, SMYD3; details: assay reported in the publication; cited from earlier work
[6] = biological target: ubiquitin specific protease 7 (Homo sapiens, UniProt Q93009); details: cited from earlier work
Chain of ubiquitin specific protease 7 (Q93009 whole entry): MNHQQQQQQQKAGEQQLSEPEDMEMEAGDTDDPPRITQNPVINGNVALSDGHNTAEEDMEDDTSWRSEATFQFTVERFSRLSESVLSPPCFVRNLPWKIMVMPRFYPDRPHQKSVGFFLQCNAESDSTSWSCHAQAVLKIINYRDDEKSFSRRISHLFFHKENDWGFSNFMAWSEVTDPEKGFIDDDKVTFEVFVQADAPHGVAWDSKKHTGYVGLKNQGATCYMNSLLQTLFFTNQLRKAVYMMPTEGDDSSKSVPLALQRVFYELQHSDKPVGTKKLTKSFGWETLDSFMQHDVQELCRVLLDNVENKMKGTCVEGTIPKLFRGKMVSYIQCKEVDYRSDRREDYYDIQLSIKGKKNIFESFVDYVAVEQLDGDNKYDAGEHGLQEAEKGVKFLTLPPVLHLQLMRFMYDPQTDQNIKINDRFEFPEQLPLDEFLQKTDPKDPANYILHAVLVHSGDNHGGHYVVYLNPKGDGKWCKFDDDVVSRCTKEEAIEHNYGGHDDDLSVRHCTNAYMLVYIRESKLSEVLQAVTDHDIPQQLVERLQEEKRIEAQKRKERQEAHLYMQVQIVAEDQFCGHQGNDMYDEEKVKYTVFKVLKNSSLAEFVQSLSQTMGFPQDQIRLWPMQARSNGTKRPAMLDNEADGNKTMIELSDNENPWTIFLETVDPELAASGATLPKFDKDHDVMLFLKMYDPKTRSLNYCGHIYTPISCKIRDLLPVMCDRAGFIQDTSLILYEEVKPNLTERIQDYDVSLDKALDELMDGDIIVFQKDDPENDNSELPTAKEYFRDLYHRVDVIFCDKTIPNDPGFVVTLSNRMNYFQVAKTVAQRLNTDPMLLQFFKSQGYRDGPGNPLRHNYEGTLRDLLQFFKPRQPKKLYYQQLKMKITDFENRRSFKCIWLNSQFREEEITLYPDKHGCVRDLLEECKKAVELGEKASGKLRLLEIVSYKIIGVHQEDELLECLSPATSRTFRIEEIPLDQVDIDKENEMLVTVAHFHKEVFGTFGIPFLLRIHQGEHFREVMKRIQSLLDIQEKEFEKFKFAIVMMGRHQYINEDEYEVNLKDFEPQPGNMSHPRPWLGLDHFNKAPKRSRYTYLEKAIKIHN

activity against SMYD3 (SMYD3 [1])	metabolic stability [2]	metabolic stability [3]	target engagement (SMYD3 [4])	IC50 (SMYD3 [1]) [µM]	SMILES	active against SMYD3 (SMYD3 [5]) [nM]	activity against ubiquitin specific protease 7 [6]
moderately active	poor	poor	poor		CCOC(=O)N1CCN(C(=O)c2ccc3c(Cl)c4c(nc3c2)CCCC4)CC1 [ethyl 4-(9-chloro-5,6,7,8-tetrahydroacridine-3-carbonyl)piperazine-1-carboxylate]		
					O=C1Cc2cc(C(=O)N[C@H]3C[C@H]4CC[C@@H](C3)N4S(=O)(=O)CC3CCN(CCCC(F)(F)F)CC3)c(Cl)cc2N1 [X5]	3	
not active				750	CN1CCC(N2CCN(C(=O)c3ccc4c(Cl)c5c(nc4c3)CCCC5)CC2)CC1 [X3, reference compound]		act against
not active				750	Cc1cccc(CN2CCC(CNC(=O)c3ccc4c(Cl)c5c(nc4c3)CCCC5)CC2)c1 [X2, reference compound]		act against
